From ChEMBL document CHEMBL4428052, “Substrate-Guided Design of Selective FXIIa Inhibitors Based on the Plant-Derived Momordica cochinchinensis Trypsin Inhibitor-II (MCoTI-II) Scaffold” (J Med Chem, 2016)
Peptide text beside a SMILES is read from it.

What was measured:
Coagulation factor X = Coagulation factor X (Homo sapiens, UniProt P00742); assay: Inhibition of factor 10a (unknown origin) using Ac-QRSRpNA as substrate incubated for 30 mins measured for 7 mins by morrison plot analysis
[1] = target: Urokinase-type plasminogen activator (Homo sapiens, UniProt P00749); assay: Inhibition of uPA (unknown origin) incubated for 30 mins measured for 7 mins by morrison plot analysis
Prothrombin = Prothrombin (Homo sapiens, UniProt P00734); assay: Inhibition of thrombin (unknown origin) using Ac-ATPRpNA as substrate incubated for 30 mins measured for 7 mins by morrison plot analysis
Homo sapiens [2] = species on record: Homo sapiens; assay: Selectivity ratio of Ki for human plasma kallikrein to Ki for factor 12a (unknown origin)
Coagulation factor XII = target: T1, Coagulation factor XII (Homo sapiens, UniProt P00748); assay: Inhibition of factor 12a (unknown origin) using Ac-QRFRpNA as substrate incubated for 30 mins measured for 7 mins by morrison plot analysis
T1 sequence (P00748 whole entry): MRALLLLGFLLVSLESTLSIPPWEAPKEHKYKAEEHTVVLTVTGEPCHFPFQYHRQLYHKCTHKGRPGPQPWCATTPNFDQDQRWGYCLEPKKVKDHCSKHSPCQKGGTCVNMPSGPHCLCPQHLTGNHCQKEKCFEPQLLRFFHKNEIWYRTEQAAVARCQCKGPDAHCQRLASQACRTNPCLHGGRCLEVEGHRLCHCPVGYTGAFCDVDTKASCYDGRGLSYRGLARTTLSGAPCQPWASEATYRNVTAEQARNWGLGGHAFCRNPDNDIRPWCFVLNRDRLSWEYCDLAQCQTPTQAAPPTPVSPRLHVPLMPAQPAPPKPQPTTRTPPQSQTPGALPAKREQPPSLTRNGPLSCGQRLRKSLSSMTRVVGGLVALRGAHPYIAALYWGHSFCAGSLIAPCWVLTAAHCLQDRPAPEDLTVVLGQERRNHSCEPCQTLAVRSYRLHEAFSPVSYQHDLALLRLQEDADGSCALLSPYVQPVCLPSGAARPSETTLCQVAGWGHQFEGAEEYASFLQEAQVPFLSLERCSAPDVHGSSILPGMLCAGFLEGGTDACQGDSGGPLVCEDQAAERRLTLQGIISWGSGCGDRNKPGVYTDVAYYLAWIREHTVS

Homo sapiens [3] = species on record: Homo sapiens; assay: Selectivity ratio of Ki for factor 12a (unknown origin) to Ki for factor 10a (unknown origin)
Homo sapiens [4] = species on record: Homo sapiens; assay: Selectivity ratio of Ki for factor 10a (unknown origin) to Ki for factor 12a (unknown origin)

Sequence of Coagulation factor X (P00742 41-179 limits assumed): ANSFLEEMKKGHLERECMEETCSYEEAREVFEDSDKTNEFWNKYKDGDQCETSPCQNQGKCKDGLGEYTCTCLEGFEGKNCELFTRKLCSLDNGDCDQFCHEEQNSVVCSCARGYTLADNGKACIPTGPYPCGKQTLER
Sequence of Coagulation factor X (P00742 235-488 limits assumed): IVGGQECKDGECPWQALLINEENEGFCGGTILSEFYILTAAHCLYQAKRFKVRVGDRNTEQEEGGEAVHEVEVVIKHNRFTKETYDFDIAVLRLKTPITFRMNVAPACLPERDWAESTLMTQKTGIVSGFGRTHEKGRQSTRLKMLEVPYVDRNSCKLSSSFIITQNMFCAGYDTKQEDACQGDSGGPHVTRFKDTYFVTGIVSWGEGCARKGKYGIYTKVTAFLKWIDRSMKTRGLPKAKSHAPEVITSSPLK

Ki (Coagulation factor X) [nM] | Ki [1] [µM] | Ki (Prothrombin) [µM] | Ratio Ki (Homo sapiens [2]) | Ki (Coagulation factor XII) [nM] | Ratio Ki (Homo sapiens [3]) | Ratio Ki (Homo sapiens [4]) | SMILES
> 100000 | > 50 | > 50 | 9 | – | – | – | CC[C@H](C)[C@@H]1NC(=O)[C@H](CCCNC(=N)N)NC(=O)[C@H](Cc2ccccc2)NC(=O)[C@H](NC(=O)[C@H](CCC(N)=O)NC(=O)CNC(=O)[C@@H](N)CCCCN)CSSC[C@H]2NC(=O)[C@H](C)NC(=O)CNC(=O)[C@@H]3CCCN3C(=O)[C@@H]3CSSC[C@H](C(=O)NCC(=O)N[C@@H](CO)C(=O)NCC(=O)N[C@@H](CO)C(=O)N[C@@H](CC(=O)O)C(=O)O)NC(=O)[C@H](Cc4ccc(O)cc4)NC(=O)CNC(=O)[C@H](CC(N)=O)NC(=O)CNC(=O)[C@H](CCCNC(=N)N)NC(=O)[C@H](CSSC[C@H](NC(=O)[C@H](CCCCN)NC(=O)[C@H](CCCCN)NC(=O)[C@H](Cc4c[nH]c5ccccc45)NC1=O)C(=O)N[C@@H](CCCNC(=N)N)C(=O)N[C@@H](CCCNC(=N)N)C(=O)N[C@@H](CC(=O)O)C(=O)N[C@@H](CO)C(=O)N[C@@H](CC(=O)O)C(=O)N3)NC(=O)[C@H]([C@@H](C)CC)NC2=O
360 | – | – | – | 2390 | 6 | – | CC(=O)N[C@@H](CCC(N)=O)C(=O)N[C@@H](CCCNC(=N)N)C(=O)N[C@@H](CO)C(=O)N[C@H](C=O)CCCNC(=N)N (Ac-QRSR-aldehyde)
460 | > 10 | > 10 | – | – | – | 4 | CC[C@H](C)[C@@H]1NC(=O)[C@H](CCCNC(=N)N)NC(=O)[C@H](Cc2ccccc2)NC(=O)[C@H](NC(=O)[C@H](CCC(N)=O)NC(=O)CNC(=O)CN)CSSC[C@H]2NC(=O)[C@H](C)NC(=O)CNC(=O)[C@@H]3CCCN3C(=O)[C@@H]3CSSC[C@H](C(=O)NCC(=O)N[C@@H](CO)C(=O)NCC(=O)N[C@@H](CO)C(=O)N[C@@H](CC(=O)O)C(=O)O)NC(=O)[C@H](Cc4ccc(O)cc4)NC(=O)CNC(=O)[C@H](CC(N)=O)NC(=O)CNC(=O)[C@H](CCCNC(=N)N)NC(=O)[C@H](CSSC[C@H](NC(=O)[C@H](CCCCN)NC(=O)[C@H](CCCCN)NC(=O)[C@H](CC(C)C)NC1=O)C(=O)N[C@@H](CCCNC(=N)N)C(=O)N[C@@H](CCCNC(=N)N)C(=O)N[C@@H](CC(=O)O)C(=O)N[C@@H](CO)C(=O)N[C@@H](CC(=O)O)C(=O)N3)NC(=O)[C@H]([C@@H](C)CC)NC2=O
